Results as given in patent publication US10597388B2, “Pyridazinone herbicides” (FMC CORPORATION, priority 2014, dated 2020).

Assays:
Assay type in all cases: in vivo
kochia (Kochia scoparia) = experiment: Test A greenhouse herbicide test, pre- and postemergence
How it was run: (§1)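 Seeds in loam–sand blend received a preemergence directed soil spray; plants at 2–10 cm, one- to two-leaf stage, received postemergence sprays. Compounds in a non-phytotoxic solvent with surfactant. After about 10 d in a greenhouse, injury rated visually versus untreated controls on a 0–100 scale (100 = complete control).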

[1] = system: ragweed (common ragweed, Ambrosia elatior); experiment: as above
How it was run: as §1

corn (Zea mays) = experiment: as above; conditions: Postemergence
How it was run: as §1

[2] = system: pigweed (Amaranthus retroflexus); experiment: as above
How it was run: as §1

[3] = system: ryegrass, Italian (Italian ryegrass, Lolium multiflorum); experiment: as above
How it was run: as §1

[4] = system: barnyardgrass (Echinochloa crus-galli); experiment: as above
How it was run: as §1

[5] = system: wheat (Triticum aestivum); experiment: as above; conditions: Postemergence
How it was run: as §1

[6] = system: foxtail, giant (giant foxtail, Setaria faberii); experiment: as above
How it was run: as §1

[7] = system: johnsongrass (Sorghum halepense); experiment: Test C greenhouse herbicide test, pre- and postemergence
Excerpt: (§2) Seeds of plant species selected from blackgrass (Alopecurus myosuroides), ryegrass, Italian (Italian ryegrass, Lolium multiflorum), wheat (winter wheat, Triticum aestivum), galium (catchweed bedstraw, Galium aparine), corn (Zea mays), large crabgrass, large (large crabgrass, Digitaria sanguinalis), foxtail, giant (giant foxtail, Setaria faberii), johnsongrass (Sorghum halepense), lambsquarters (Chenopodium album), morningglory (Ipomoea coccinea), nutsedge, yellow (yellow nutsedge, Cyperus esculentus), pigweed (Amaranthus retroflexus), ragweed (common ragweed, Ambrosia elatior), soybean (Glycine max), barnyardgrass (Echinochloa crus-galli), oilseed rape (Brassica napus), waterhemp (common waterhemp, Amaranthus rudis), and velvetleaf (Abutilon theophrasti) were planted into a blend of loam soil and sand and treated preemergence with test chemicals formulated in a non-phytotoxic solvent mixture which included a surfactant.
(§3) At the same time, plants selected from these crop and weed species and also chickweed (common chickweed, Stellaria media), kochia (Kochia scoparia), and oat, wild (wild oat, Avena fatua), were planted in pots containing Redi-Earth® planting medium (Scotts Company, 14111 Scottslawn Road, Marysville, Ohio 43041) comprising spaghnum peat moss, vermiculite, wetting agent and starter nutrients and treated with postemergence applications of test chemicals formulated in the same manner. Plants ranged in height from 2 to 18 cm (1- to 4-leaf stage) for postemergence treatments. Treated plants and controls were maintained in a greenhouse for 13 to 15 d, after which time all species were compared to controls and visually evaluated. Plant response ratings, summarized in Table C, are based on a scale of 0 to 100 where 0 is no effect and 100 is complete control. A dash (-) response means no test result.

[8] = system: waterhemp (common waterhemp, Amaranthus rudis); experiment: as above
Excerpt: as §2, §3

[9] = Postemergence, 125 g ai/ha, 0 to 100 scale where 0 is no effect and 100 is complete control
[10] = Postemergence, 500 g ai/ha, visual rating after approx. 10 d, 0 to 100 scale (0 no effect, 100 complete control)
[11] = Preemergence, 125 g ai/ha, 0 to 100 scale where 0 is no effect and 100 is complete control
[12] = Preemergence, 500 g ai/ha, 0 to 100 scale where 0 is no effect and 100 is complete control
[13] = 125 g ai/ha, 0 to 100 scale where 0 is no effect and 100 is complete control
[14] = 500 g ai/ha, visual rating after approx. 10 d, 0 to 100 scale (0 no effect, 100 complete control)
[15] = Postemergence, 500 g ai/ha, 0 to 100 scale, 0 is no effect, 100 is complete control
[16] = Postemergence, 125 g ai/ha, scale 0 to 100, 0 is no effect, 100 is complete control
[17] = Postemergence, 250 g ai/ha, scale 0 to 100, 0 no effect, 100 complete control, 13 to 15 d
[18] = Preemergence, 31 g ai/ha, scale 0 to 100, 0 is no effect, 100 is complete control
[19] = Preemergence, 62 g ai/ha, scale 0 to 100, 0 is no effect, 100 is complete control
[20] = Preemergence, 125 g ai/ha, scale 0 to 100, 0 is no effect, 100 is complete control
[21] = Preemergence, 250 g ai/ha, scale 0 to 100, 0 no effect, 100 complete control
[22] = postemergence, 62 g ai/ha, scale 0 to 100, 0 no effect, 100 complete control
[23] = Postemergence, 31 g ai/ha, scale 0 to 100 (0 no effect, 100 complete control)

Compound: CC(=O)Oc1c(C)nn(C)c(=O)c1-c1c(C)cc(C)c2ccccc12 [Compound 99]
- Plant response rating, Kochia (kochia (Kochia scoparia); [9]): 30
- Plant response rating, Kochia (kochia (Kochia scoparia); [10]): 70
- Kochia plant response rating (kochia (Kochia scoparia); [11]): 20
- Plant response rating, Kochia (kochia (Kochia scoparia); [12]): 70
- Plant response rating, Ragweed [1, 9]: 100
- Plant response rating, Ragweed [1, 10]: 100
- Ragweed plant response rating [1, 11]: 80
- Plant response rating, Ragweed [1, 12]: 80
- Plant response rating, Corn (corn (Zea mays); [13]): 20
- Plant response rating, Corn (corn (Zea mays); [14]): 40
- Plant response rating, Pigweed [2, 9]: 70
- Plant response rating, Pigweed [2, 10]: 90
- Pigweed plant response rating [2, 11]: 100
- Plant response rating, Pigweed [2, 12]: 100
- Plant response rating, Ryegrass, Italian [3, 9]: 100
- Plant response rating, Ryegrass, Italian [3, 10]: 100
- Ryegrass, Italian plant response rating [3, 11]: 100
- Plant response rating, Ryegrass, Italian [3, 12]: 100
- Plant response rating, Barnyardgrass [4, 9]: 20
- Barnyardgrass plant response rating [4, 15]: 90
- Barnyardgrass plant response rating [4, 11]: 60
- Plant response rating, Barnyardgrass [4, 12]: 90
- Plant response rating, Wheat [5, 13]: 20
- Plant response rating, Wheat [5, 14]: 30
- Plant response rating, Foxtail, Giant [6, 9]: 40
- Plant response rating, Foxtail, Giant [6, 10]: 90
- Foxtail, Giant plant response rating [6, 11]: 50
- Plant response rating, Foxtail, Giant [6, 12]: 80
- Plant response rating, Johnsongrass [7, 16]: 10
- Plant response rating, Johnsongrass [7, 17]: 5
- Plant response rating, Johnsongrass [7, 18]: 0
- Plant response rating, Johnsongrass [7, 19]: 0
- Plant response rating, Johnsongrass [7, 20]: 0
- Johnsongrass plant response rating [7, 21]: 20
- Johnsongrass plant response rating [7, 22]: 10
- Plant response rating, Waterhemp [8, 16]: 95
- Plant response rating, Waterhemp [8, 17]: 98
- Plant response rating, Waterhemp [8, 18]: 85
- Plant response rating, Waterhemp [8, 19]: 100
- Plant response rating, Waterhemp [8, 20]: 98
- Waterhemp plant response rating [8, 21]: 100
- Waterhemp plant response rating [8, 22]: 75

Compound: Cc1ccc2ccccc2c1-c1c(O)c(C(F)(F)F)nn(C)c1=O [Compound 102]
- Plant response rating, Kochia (kochia (Kochia scoparia); [9]): 20
- Plant response rating, Kochia (kochia (Kochia scoparia); [10]): 40
- Kochia plant response rating (kochia (Kochia scoparia); [11]): 10
- Plant response rating, Kochia (kochia (Kochia scoparia); [12]): 30
- Plant response rating, Ragweed [1, 9]: 100
- Plant response rating, Ragweed [1, 10]: 100
- Ragweed plant response rating [1, 11]: 90
- Plant response rating, Ragweed [1, 12]: 90
- Plant response rating, Corn (corn (Zea mays); [13]): 20
- Plant response rating, Corn (corn (Zea mays); [14]): 20
- Plant response rating, Pigweed [2, 9]: 90
- Plant response rating, Pigweed [2, 10]: 90
- Pigweed plant response rating [2, 11]: 80
- Plant response rating, Pigweed [2, 12]: 100
- Plant response rating, Ryegrass, Italian [3, 9]: 20
- Plant response rating, Ryegrass, Italian [3, 10]: 80
- Ryegrass, Italian plant response rating [3, 11]: 60
- Plant response rating, Ryegrass, Italian [3, 12]: 60
- Plant response rating, Barnyardgrass [4, 9]: 40
- Barnyardgrass plant response rating [4, 15]: 90
- Barnyardgrass plant response rating [4, 11]: 40
- Plant response rating, Barnyardgrass [4, 12]: 60
- Plant response rating, Wheat [5, 13]: 20
- Plant response rating, Wheat [5, 14]: 20
- Plant response rating, Foxtail, Giant [6, 9]: 70
- Plant response rating, Foxtail, Giant [6, 10]: 90
- Foxtail, Giant plant response rating [6, 11]: 70
- Plant response rating, Foxtail, Giant [6, 12]: 90
- Plant response rating, Johnsongrass [7, 23]: 0
- Plant response rating, Johnsongrass [7, 16]: 0
- Plant response rating, Johnsongrass [7, 17]: 10
- Plant response rating, Johnsongrass [7, 18]: 0
- Plant response rating, Johnsongrass [7, 19]: 0
- Plant response rating, Johnsongrass [7, 20]: 0
- Johnsongrass plant response rating [7, 21]: 0
- Plant response rating, Waterhemp [8, 23]: 25
- Plant response rating, Waterhemp [8, 16]: 80
- Plant response rating, Waterhemp [8, 17]: 85
- Plant response rating, Waterhemp [8, 18]: 75
- Plant response rating, Waterhemp [8, 19]: 65
- Plant response rating, Waterhemp [8, 20]: 75
- Waterhemp plant response rating [8, 21]: 85

Compound: CCCC(=O)Oc1c(C)nn(C)c(=O)c1-c1c(C)sc2ccc(C)cc12 [Compound 105]
- Plant response rating, Kochia (kochia (Kochia scoparia); [9]): 90
- Plant response rating, Kochia (kochia (Kochia scoparia); [10]): 90
- Kochia plant response rating (kochia (Kochia scoparia); [11]): 100
- Plant response rating, Kochia (kochia (Kochia scoparia); [12]): 100
- Plant response rating, Ragweed [1, 9]: 90
- Plant response rating, Ragweed [1, 10]: 100
- Ragweed plant response rating [1, 11]: 100
- Plant response rating, Ragweed [1, 12]: 100
- Plant response rating, Corn (corn (Zea mays); [13]): 0
- Plant response rating, Corn (corn (Zea mays); [14]): 30
- Plant response rating, Pigweed [2, 9]: 90
- Plant response rating, Pigweed [2, 10]: 90
- Pigweed plant response rating [2, 11]: 100
- Plant response rating, Pigweed [2, 12]: 100
- Plant response rating, Ryegrass, Italian [3, 9]: 100
- Plant response rating, Ryegrass, Italian [3, 10]: 100
- Ryegrass, Italian plant response rating [3, 11]: 100
- Plant response rating, Ryegrass, Italian [3, 12]: 100
- Plant response rating, Barnyardgrass [4, 9]: 50
- Barnyardgrass plant response rating [4, 15]: 90
- Barnyardgrass plant response rating [4, 11]: 20
- Plant response rating, Barnyardgrass [4, 12]: 100
- Plant response rating, Wheat [5, 13]: 0
- Plant response rating, Wheat [5, 14]: 20
- Plant response rating, Foxtail, Giant [6, 9]: 70
- Plant response rating, Foxtail, Giant [6, 10]: 90
- Foxtail, Giant plant response rating [6, 11]: 90
- Plant response rating, Foxtail, Giant [6, 12]: 100
- Plant response rating, Johnsongrass [7, 23]: 5
- Plant response rating, Johnsongrass [7, 16]: 0
- Plant response rating, Johnsongrass [7, 17]: 0
- Plant response rating, Johnsongrass [7, 18]: 10
- Plant response rating, Johnsongrass [7, 19]: 20
- Plant response rating, Johnsongrass [7, 20]: 20
- Johnsongrass plant response rating [7, 21]: 60
- Plant response rating, Waterhemp [8, 23]: 80
- Plant response rating, Waterhemp [8, 16]: 100
- Plant response rating, Waterhemp [8, 17]: 98
- Plant response rating, Waterhemp [8, 18]: 90
- Plant response rating, Waterhemp [8, 19]: 95
- Plant response rating, Waterhemp [8, 20]: 100
- Waterhemp plant response rating [8, 21]: 100

Compound: CCCC(=O)Oc1c(C)nn(C)c(=O)c1-c1c(CC)sc2ccc(C)cc12 [Compound 107]
- Plant response rating, Kochia (kochia (Kochia scoparia); [9]): 80
- Plant response rating, Kochia (kochia (Kochia scoparia); [10]): 90
- Kochia plant response rating (kochia (Kochia scoparia); [11]): 20
- Plant response rating, Kochia (kochia (Kochia scoparia); [12]): 90
- Plant response rating, Ragweed [1, 9]: 90
- Plant response rating, Ragweed [1, 10]: 90
- Ragweed plant response rating [1, 11]: 90
- Plant response rating, Ragweed [1, 12]: 100
- Plant response rating, Corn (corn (Zea mays); [13]): 0
- Plant response rating, Corn (corn (Zea mays); [14]): 30
- Plant response rating, Pigweed [2, 9]: 90
- Plant response rating, Pigweed [2, 10]: 90
- Pigweed plant response rating [2, 11]: 100
- Plant response rating, Pigweed [2, 12]: 100
- Plant response rating, Ryegrass, Italian [3, 9]: 60
- Plant response rating, Ryegrass, Italian [3, 10]: 90
- Ryegrass, Italian plant response rating [3, 11]: 80
- Plant response rating, Ryegrass, Italian [3, 12]: 100
- Plant response rating, Barnyardgrass [4, 9]: 60
- Barnyardgrass plant response rating [4, 15]: 100
- Barnyardgrass plant response rating [4, 11]: 70
- Plant response rating, Barnyardgrass [4, 12]: 100
- Plant response rating, Wheat [5, 13]: 30
- Plant response rating, Wheat [5, 14]: 20
- Plant response rating, Foxtail, Giant [6, 9]: 70
- Plant response rating, Foxtail, Giant [6, 10]: 90
- Foxtail, Giant plant response rating [6, 11]: 70
- Plant response rating, Foxtail, Giant [6, 12]: 100
- Plant response rating, Johnsongrass [7, 23]: 0
- Plant response rating, Johnsongrass [7, 16]: 0
- Plant response rating, Johnsongrass [7, 17]: 20
- Plant response rating, Johnsongrass [7, 18]: 0
- Plant response rating, Johnsongrass [7, 19]: 0
- Plant response rating, Johnsongrass [7, 20]: 10
- Johnsongrass plant response rating [7, 21]: 20
- Plant response rating, Waterhemp [8, 23]: 75
- Plant response rating, Waterhemp [8, 16]: 95
- Plant response rating, Waterhemp [8, 17]: 90
- Plant response rating, Waterhemp [8, 18]: 75
- Plant response rating, Waterhemp [8, 19]: 75
- Plant response rating, Waterhemp [8, 20]: 95
- Waterhemp plant response rating [8, 21]: 98
